In patent US20230295162A1 (EÖTVÖS LORÁND TUDOMÁNYEGYETEM, priority 2020, published 2023):

Experiments:
[1] = test system: H2228 lung cancer cell line; assay: High-throughput screening, CellTiter-Glo cell viability assay at 100 nM; type: cell-based, human; conditions: Homo sapiens, NCI-H2228, HTS, compounds at 100 nM, 72 h, read-out: cytotoxicity expressed in IC50, H2228 (results of High throughput screening)
[2] = test system: EBC-1 lung cancer cell line; assay: as above; type: cell-based, human; conditions: Homo sapiens, EBC-1, HTS, compounds at 100 nM, 72 h, read-out: cytotoxicity expressed in IC50, EBC-1 (results of High throughput screening)
[3] = test system: PANC-1 (human pancreatic carcinoma) cells; assay: Impedance-based viability assay (xCELLigence SP), long treatment; type: cell-based; conditions: 72 h, read-out: cytotoxicity expressed in IC50, PANC-1
Source text: (Gibco®/Invitrogen Corporation, New York, NY, USA).
Data obtained from each experiment represent mathematical averages.

[4] = test system: PC-3 (prostate, adenocarcinoma) cells; assay: Cell viability assay, CellTiter-Glo (Example 21); type: cell-based, human; conditions: 72 h treatment
Experimental: (§1) Effect of the selected compounds on cancer cell viability was measured via CellTiter-Glo® luminescent cell viability assay (Promega, Madison, WI, USA) according to the manufacturer's instructions. Cells were plated onto a flat-bottomed, white 96 well plate (BRANDplates®, cat. no.: 781965). Density of the seeded cells was optimized based on their size and growth rate, as the follows: Panc-1:750 cells/well; DU 145, PC-3, Capan-1, MIA PaCa-2, SCC-25, FaDu and EBC-1: 1000 cells/well; LNCaP, Detroit 562, MDA-MB-231 and MDA-MB-453 1500 cells/well. […] After the treatment, the luminescence signal was recorded using a microplate reader (BioTek Synergy 2 Multi-Mode Reader, BioTek, Winooski, VT, USA). Dose-response curves were generated by GraphPad Prism 8.4.2. software using a non-linear regression model (variable slope, four parameters), (see FIGS. 12-51).

[5] = test system: Capan-1 (pancreas, adenocarcinoma) cells; assay: Cell viability assay, CellTiter-Glo (Example 21); type: cell-based, human; conditions: 72 h treatment
Experimental: as §1

[6] = test system: EBC-1 (lung, squamous cell carcinoma) cells; assay: Cell viability assay, CellTiter-Glo (Example 21); type: cell-based, human; conditions: 72 h treatment
Experimental: as §1

[7] = test system: DU 145 (prostate, carcinoma) cells; assay: Cell viability assay, CellTiter-Glo (Example 21); type: cell-based, human; conditions: 72 h
Experimental: as §1

[8] = test system: MDA-MB-453 (breast, carcinoma) cells; assay: Cell viability assay, CellTiter-Glo (Example 21); type: cell-based, human; conditions: 72 h treatment
Experimental: as §1

[9] = test system: MIA PaCa-2 (pancreas, carcinoma) cells; assay: Cell viability assay, CellTiter-Glo (Example 21); type: cell-based, human; conditions: 72 h treatment
Experimental: as §1

[10] = test system: MDA-MB-231 (breast, adenocarcinoma) cells; assay: Cell viability assay, CellTiter-Glo (Example 21); type: cell-based, human; conditions: 72 h treatment
Experimental: as §1

[11] = test system: Detroit 562 (pharynx, carcinoma) cells; assay: Cell viability assay, CellTiter-Glo (Example 21); type: cell-based, human; conditions: 72 h treatment
Experimental: as §1

[12] = test system: LNCaP (prostate, carcinoma) cells; assay: Cell viability assay, CellTiter-Glo (Example 21); type: cell-based, human; conditions: 72 h
Experimental: as §1

[13] = test system: Panc-1 (pancreas, carcinoma) cells; assay: Cell viability assay, CellTiter-Glo (Example 21); type: cell-based, human; conditions: 72 h treatment
Experimental: as §1

[14] = test system: SCC-25 (tongue, squamous cell carcinoma) cells; assay: Cell viability assay, CellTiter-Glo (Example 21); type: cell-based, human; conditions: 72 h treatment
Experimental: as §1

O=C1C2=C(CCN(Cc3cc(F)cc(F)c3)C2)N2CCN=C2N1Cc1ccc(C(F)(F)F)cc1 [I/30, 7-(3,5-Difluorobenzyl)-4-(4-(trifluoromethyl)benzyl)-2,4,6,7,8,9-hexahydroimidazo[1,2-a]pyrido[3,4-e]pyrimidin-5(1H)-one]
IC50 [1]: < 100 nM
IC50 [2]: < 100 nM
IC50 [3]: 4 nM
PC-3 (prostate, adenocarcinoma) cell viability (% of control) ([4]; 3.7 nM): 78.9 ± 4.6 % of control
PC-3 (prostate, adenocarcinoma) cell viability (% of control) ([4]; 11.1 nM): 36.6 ± 1.8 % of control
PC-3 (prostate, adenocarcinoma) cell viability (% of control) ([4]; 100 nM): 32.1 ± 3.6 % of control
PC-3 (prostate, adenocarcinoma) cell viability (% of control) ([4]; 300 nM): 31.3 ± 2.5 % of control
Capan-1 (pancreas, adenocarcinoma) cell viability (% of control) ([5]; 3.7 nM): 100.8 ± 5.3 % of control
Capan-1 (pancreas, adenocarcinoma) cell viability (% of control) ([5]; 11.1 nM): 38.4 ± 4.5 % of control
Capan-1 (pancreas, adenocarcinoma) cell viability (% of control) ([5]; 100 nM): 34.0 ± 2.8 % of control
Capan-1 (pancreas, adenocarcinoma) cell viability (% of control) ([5]; 300 nM): 33.1 ± 1.7 % of control
EBC-1 (lung, squamous cell carcinoma) cell viability (% of control) ([6]; 3.7 nM): 76.4 ± 2.2 % of control
EBC-1 (lung, squamous cell carcinoma) cell viability (% of control) ([6]; 11.1 nM): 24.8 ± 1.1 % of control
EBC-1 (lung, squamous cell carcinoma) cell viability (% of control) ([6]; 100 nM): 21.3 ± 0.6 % of control
EBC-1 (lung, squamous cell carcinoma) cell viability (% of control) ([6]; 300 nM): 20.1 ± 0.0 % of control
DU 145 cell viability ([7]; 3.7 nM): 37.2 ± 10.4 % of control
DU 145 cell viability ([7]; 11.1 nM): 7.0 ± 0.9 % of control
DU 145 cell viability ([7]; 100 nM): 7.0 ± 1.1 % of control
DU 145 cell viability ([7]; 300 nM): 8.0 ± 2.9 % of control
MDA-MB-453 (breast, carcinoma) cell viability (% of control) ([8]; 3.7 nM): 58.0 ± 24.4 % of control
MDA-MB-453 (breast, carcinoma) cell viability (% of control) ([8]; 11.1 nM): 34.8 ± 3.3 % of control
MDA-MB-453 (breast, carcinoma) cell viability (% of control) ([8]; 100 nM): 31.1 ± 1.8 % of control
MDA-MB-453 (breast, carcinoma) cell viability (% of control) ([8]; 300 nM): 28.9 ± 1.0 % of control
MIA PaCa-2 (pancreas, carcinoma) cell viability (% of control) ([9]; 3.7 nM): 65.7 ± 12.6 % of control
MIA PaCa-2 (pancreas, carcinoma) cell viability (% of control) ([9]; 11.1 nM): 19.1 ± 8.0 % of control
MIA PaCa-2 (pancreas, carcinoma) cell viability (% of control) ([9]; 100 nM): 16.7 ± 6.7 % of control
MIA PaCa-2 (pancreas, carcinoma) cell viability (% of control) ([9]; 300 nM): 17.6 ± 7.6 % of control
MDA-MB-231 (breast, adenocarcinoma) cell viability (% of control) ([10]; 3.7 nM): 100.0 ± 4.5 % of control
MDA-MB-231 (breast, adenocarcinoma) cell viability (% of control) ([10]; 11.1 nM): 59.9 ± 2.1 % of control
MDA-MB-231 (breast, adenocarcinoma) cell viability (% of control) ([10]; 100 nM): 52.1 ± 1.8 % of control
MDA-MB-231 (breast, adenocarcinoma) cell viability (% of control) ([10]; 300 nM): 52.6 ± 2.5 % of control
Detroit 562 (pharynx, carcinoma) cell viability (% of control) ([11]; 3.7 nM): 31.9 ± 6.7 % of control
Detroit 562 (pharynx, carcinoma) cell viability (% of control) ([11]; 11.1 nM): 27.0 ± 5.5 % of control
Detroit 562 (pharynx, carcinoma) cell viability (% of control) ([11]; 100 nM): 24.7 ± 2.9 % of control
Detroit 562 (pharynx, carcinoma) cell viability (% of control) ([11]; 300 nM): 28.7 ± 2.5 % of control
LNCaP cell viability ([12]; 3.7 nM): 29.6 ± 2.5 % of control
LNCaP cell viability ([12]; 11.1 nM): 15.0 ± 0.4 % of control
LNCaP cell viability ([12]; 100 nM): 11.4 ± 0.6 % of control
LNCaP cell viability ([12]; 300 nM): 11.3 ± 1.1 % of control
Panc-1 (pancreas, carcinoma) cell viability (% of control) ([13]; 3.7 nM): 100.8 ± 3.4 % of control
Panc-1 (pancreas, carcinoma) cell viability (% of control) ([13]; 11.1 nM): 54.4 ± 3.5 % of control
Panc-1 (pancreas, carcinoma) cell viability (% of control) ([13]; 100 nM): 46.4 ± 3.1 % of control
Panc-1 (pancreas, carcinoma) cell viability (% of control) ([13]; 300 nM): 49.1 ± 0.2 % of control
SCC-25 (tongue, squamous cell carcinoma) cell viability (% of control) ([14]; 3.7 nM): 78.7 ± 15.0 % of control
SCC-25 (tongue, squamous cell carcinoma) cell viability (% of control) ([14]; 11.1 nM): 35.0 ± 14.5 % of control
SCC-25 (tongue, squamous cell carcinoma) cell viability (% of control) ([14]; 100 nM): 32.9 ± 2.1 % of control
SCC-25 (tongue, squamous cell carcinoma) cell viability (% of control) ([14]; 300 nM): 36.3 ± 2.6 % of control
